# Numbers after ± are expanded uncertainties.
# Experiments:
# [1] = Liquid; for self diffusion coefficient: NMR
# [2] = xn = mol fraction of the nth substance listed; conditions: 343.15 K, Liquid; for viscosity: Oscillating piston [Cambridge Applied Systems Model]; for molar volume: High-pressure cell with syringe pump
smiles,measurement,setting,value
CCCCCC[n+]1ccn(C)c1.O=S(=O)([N-]S(=O)(=O)C(F)(F)F)C(F)(F)F,self diffusion coefficient,"[1]; 298.15 K, 100 kPa",1.79e-11 m2/s
same,self diffusion coefficient,"[1]; 323.15 K, 100 kPa",5.54e-11 m2/s
same,self diffusion coefficient,"[1]; 343.15 K, 100 kPa",1.07e-10 m2/s
same,viscosity,"[1]; 343.15 K, 100 kPa, Oscillating piston [Cambridge Applied Systems Model]",14.07 ± 0.35 mPa·s
CCCCCC[n+]1ccn(C)c1.O=S(=O)([N-]S(=O)(=O)C(F)(F)F)C(F)(F)F + FCC(F)(F)F,viscosity,"[2]; 100 kPa, x2 = 0",14.07 ± 0.35 mPa·s
"FCC(F)(F)F [1,1,1,2-tetrafluoroethane]",self diffusion coefficient,"[1]; 298.15 K, 670 kPa",5.95e-09 m2/s
"FCC(F)(F)F [1,1,1,2-tetrafluoroethane] + CCCCCC[n+]1ccn(C)c1.O=S(=O)([N-]S(=O)(=O)C(F)(F)F)C(F)(F)F",molar volume,"[2]; 84 kPa, x1 = 0.0397",0.0003358 ± 3.2e-06 m3/mol
same,molar volume,"[2]; 212 kPa, x1 = 0.1086",0.0003159 ± 2.8e-06 m3/mol
same,viscosity,"[2]; 310 kPa, x1 = 0.148",12.62 ± 0.31 mPa·s
same,molar volume,"[2]; 395 kPa, x1 = 0.1956",0.0002928 ± 2.6e-06 m3/mol
same,viscosity,"[2]; 610 kPa, x1 = 0.276",11.97 ± 1.3 mPa·s
same,molar volume,"[2]; 615 kPa, x1 = 0.2904",0.0002669 ± 2.2e-06 m3/mol
same,viscosity,"[2]; 850 kPa, x1 = 0.364",9.33 ± 1.6 mPa·s
same,molar volume,"[2]; 971 kPa, x1 = 0.4272",0.0002313 ± 1.8e-06 m3/mol
same,viscosity,"[2]; 1130 kPa, x1 = 0.459",8.09 ± 0.18 mPa·s
same,molar volume,"[2]; 1320 kPa, x1 = 0.5508",0.0001984 ± 1.4e-06 m3/mol
same,viscosity,"[2]; 1470 kPa, x1 = 0.575",7.06 ± 0.3 mPa·s
same,molar volume,"[2]; 1732 kPa, x1 = 0.6867",0.0001653 ± 1e-06 m3/mol
same,molar volume,"[2]; 1956 kPa, x1 = 0.777",0.0001436 ± 8e-07 m3/mol
same,molar volume,"[2]; 2016 kPa, x1 = 0.8075",0.0001367 ± 6e-07 m3/mol
same,viscosity,"[2]; 2030 kPa, x1 = 0.813",3.24 ± 0.07 mPa·s
same,molar volume,"[2]; 2064 kPa, x1 = 0.8427",0.0001289 ± 6e-07 m3/mol
same,molar volume,"[2]; 2075 kPa, x1 = 0.8572",0.0001265 ± 4e-07 m3/mol
